# Laboratory results as given in patent EP4603105A1, “PHARMACEUTICAL COMPOSITION CONTAINING CYCLIC COMPOUND HAVING SELECTIVE KRAS INHIBITORY EFFECT AGAINST HRAS AND NRAS” (CHUGAI SEIYAKU KABUSHIKI KAISHA, priority 2022, dated 2024).
# Where two headings read alike, the source gives them in different places.
# Assays:
# [1] = system: human lung cancer strain NCI-H441; experiment: NCI-H441 cell proliferation inhibitory activity (CellTiter-Glo, 4 days); format: cell-based; details: read-out: NCl-H441 IC50
# How it was run: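 Proliferation was scored by […] measured after the reagent was added to cultures kept at 37°C in 5% carbon dioxide.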
# [2] = target: GDP-bound KRAS wild-type protein (Homo sapiens, UniProt P01116); experiment: Binding to KRAS by surface plasmon resonance (SPR), dissociation constant KD
# Chain of GDP-bound KRAS wild-type protein (P01116 1-188 isoform P01116-2): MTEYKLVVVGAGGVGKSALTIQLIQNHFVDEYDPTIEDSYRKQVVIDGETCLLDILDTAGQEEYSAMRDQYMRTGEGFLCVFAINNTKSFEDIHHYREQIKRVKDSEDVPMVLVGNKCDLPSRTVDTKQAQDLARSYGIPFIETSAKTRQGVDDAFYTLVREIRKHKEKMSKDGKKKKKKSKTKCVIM
# How it was run: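 Running buffer contained 10 µM GDP and 10 mM MgCl2 to keep RAS in the GDP state, with 4% DMSO at pH 7.4. Compounds were flowed at 100 µL/min in 75 s steps of rising concentration over captured biotin-Avi RAS at 30°C. Sensorgrams were fitted 1:1 for KD.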
# HRAS wild-type protein = HRAS wild-type protein (Homo sapiens, UniProt P01112); experiment: Binding to HRAS by surface plasmon resonance (SPR), KD and KD ratio to KRAS
# Chain of HRAS wild-type protein (P01112 whole entry): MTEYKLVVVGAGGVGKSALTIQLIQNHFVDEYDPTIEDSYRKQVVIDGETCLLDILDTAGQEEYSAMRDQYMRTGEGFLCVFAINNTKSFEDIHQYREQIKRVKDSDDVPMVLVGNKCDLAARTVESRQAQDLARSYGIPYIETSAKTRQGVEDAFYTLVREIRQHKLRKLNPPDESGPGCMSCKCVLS
# How it was run: (§1)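 SPR, 30°C: Avi-biotin RAS·GDP captured via Biotin CAPture (~100–300 RU); running buffer HBS pH 7.4, 1 mM DTT, 10 mM MgCl2, 0.01% Tween 20, 10 µM GDP, 4% DMSO. Single-cycle kinetics, 100 µL/min, 75 s injections; 1:1 model → KD.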
# [3] = target: GDP-bound NRAS wild-type protein (Homo sapiens, UniProt P01111); experiment: Binding to NRAS by surface plasmon resonance (SPR), KD and KD ratio to KRAS
# Chain of GDP-bound NRAS wild-type protein (P01111 whole entry): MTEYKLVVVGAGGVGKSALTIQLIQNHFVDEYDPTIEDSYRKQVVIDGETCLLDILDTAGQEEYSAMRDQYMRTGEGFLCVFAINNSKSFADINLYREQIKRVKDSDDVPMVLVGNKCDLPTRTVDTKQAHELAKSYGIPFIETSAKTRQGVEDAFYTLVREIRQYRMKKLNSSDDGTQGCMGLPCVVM
# How it was run: as §1
# [4] = ratio of KD for HRAS wild-type protein to KD for KRAS
# [5] = ratio of KD for GDP-bound NRAS wild-type protein to KD for KRAS
# [6] = 50% proliferation inhibitory concentration, four days
# [7] = Single Cycle Kinetics, 1:1 binding model
# [8] = ratio of KD with respect to HRAS wild-type protein to KD with respect to KRAS
# [9] = ratio of KD with respect to GDP-bound NRAS wild-type protein to KD with respect to KRAS
SMILES,"IC50 ([1]; NCI-H441 cells, 4 days)",Kd ([2]; 1:1 binding model),Kd ([2]; Single Cycle Kinetics),"IC50 [1, 6]","Kd [2, 7]",HRAS /KRAS (HRAS wild-type protein; [4]),"NRAS /KRAS [3, 5]",HRAS /KRAS (HRAS wild-type protein; [8]),"NRAS /KRAS [3, 9]"
CC[C@H](C)[C@@H]1NC(=O)[C@H](COC)N(C)C(=O)C[C@@H](C(=O)N(C)C)N(C)C(=O)[C@H](C2CCCC2)N(C)C(=O)C2(CC(C)(C)C2)NC(=O)[C@@H]2C[C@@H](OC3CCC3)CN2C(=O)[C@H](CCc2cc(F)c(C(F)(F)F)c(F)c2)NC(=O)CN(C)C(=O)[C@H](CC2CCCCC2)N2CC/C=C\C[C@@H](C2=O)N(C)C(=O)CN(C2CC2)C1=O [PP2618],69.5 nM,1.4 nM,,,,A (a compound having 10 or more and less than 20 is denoted as A),A (a compound having 10 or more and less than 20 is denoted as A),,
CCC[C@H]1C(=O)N[C@@H](CC(C)C)C(=O)N(CC)CC(=O)N(C)[C@H]2C/C=C\CCN(C2=O)[C@@H](Cc2ccc(C)cc2)C(=O)N(C)CC(=O)N[C@@H](CCc2ccc(C(F)(F)F)c(Cl)c2)C(=O)N2C[C@H](OCC)C[C@H]2C(=O)NC2(CCC2)C(=O)N(C)[C@@H](C2CCCC2)C(=O)N(C)[C@H](C(=O)N(C)C)CC(=O)N1C [PP2545],279 nM,4.3 nM,,,,A (a compound having 10 or more and less than 20 is denoted as A),A (a compound having 10 or more and less than 20 is denoted as A),,
CCC[C@H]1C(=O)N[C@@H]([C@@H](C)CC)C(=O)N(C2CC2)CC(=O)N(C)[C@H]2C/C=C\CCN(C2=O)[C@@H](Cc2ccc(C(F)(F)F)cc2)C(=O)N(C)CC(=O)N[C@@H](CCc2ccc(C(F)(F)F)c(OC)c2)C(=O)N2C[C@H](OCC)C[C@H]2C(=O)NC2(CC(C)(C)C2)C(=O)N(C)[C@@H](CC(C)(C)C)C(=O)N(C)[C@H](C(=O)N(C)C)CC(=O)N1C [PP2746],10.2 nM,0.28 nM,,,,A (a compound having 10 or more and less than 20 is denoted as A),A (a compound having 10 or more and less than 20 is denoted as A),,
CCO[C@@H]1C[C@H]2C(=O)NC3(CCCC3)C(=O)N(C)[C@@H](C3CCCC3)C(=O)N(C)[C@H](C(=O)N(C)C)CC(=O)N(C)[C@@H](CC(C)C)C(=O)N[C@@H]([C@@H](C)CC)C(=O)N(C)CC(=O)N(C)[C@H]3C/C=C\CCN(C3=O)[C@@H](CC3CCCCC3)C(=O)N(C)CC(=O)N[C@@H](CCc3cc(F)c(C(F)(F)F)c(F)c3)C(=O)N2C1 [PP1473],,,,36.6 nM,0.19 nM,,,A (a compound having 10 or more and less than 20 is denoted as A),A (a compound having 10 or more and less than 20 is denoted as A)
CCC[C@H]1C(=O)N[C@@H](CC(C)C)C(=O)N(C2CC2)CC(=O)N(C)[C@H]2C/C=C\CCN(C2=O)[C@@H](Cc2ccc(C)cc2)C(=O)N(C)CC(=O)N[C@@H](CCc2cc(F)c(C(F)(F)F)c(F)c2)C(=O)N2C[C@H](OCC)C[C@H]2C(=O)NC2(CC(C)(C)C2)C(=O)N(C)[C@@H](C2CCCC2)C(=O)N(C)[C@H](C(=O)N(C)C)CC(=O)N1C [PP2508],124 nM,3.4 nM,,,,B (a compound having 3 or more and less than 10 is denoted as B),A (a compound having 10 or more and less than 20 is denoted as A),,
CCC[C@H]1C(=O)N[C@@H]([C@@H](C)CC)C(=O)N(C)CC(=O)N(C)[C@H]2C/C=C\CCN(C2=O)[C@@H](Cc2ccc(C(F)(F)F)cc2)C(=O)N(C)CC(=O)N[C@@H](CCc2cc(F)c(C(F)(F)F)c(F)c2)C(=O)N2CC3(CC3)C[C@H]2C(=O)N(C)C2(CCC2)C(=O)N(C)[C@@H](C(CC)CC)C(=O)N(C)[C@H](C(=O)N(C)C)CC(=O)N1C [PP3357],8.4 nM,,0.82 nM,,,A (a compound having 10 or more and less than 20 is denoted as A),A (a compound having 10 or more and less than 20 is denoted as A),,
CCC[C@H]1C(=O)N[C@@H]([C@@H](C)CC)C(=O)N(C2CC2)CC(=O)N(C)[C@H]2C/C=C\CCN(C2=O)[C@@H](Cc2ccc(C(F)(F)F)cc2)C(=O)N(C)CC(=O)N[C@@H](CCc2cc(F)c(C(F)(F)F)c(F)c2)C(=O)N2C[C@H](OCC)C[C@H]2C(=O)NC2(CCCC2)C(=O)N(C)[C@@H](C2CCCC2)C(=O)N(C)[C@H](C(=O)N(C)C)CC(=O)N1C [PP3473],13.5 nM,,0.53 nM,,,B (a compound having 3 or more and less than 10 is denoted as B),AA (a compound having 20 or more is denoted as AA),,

# More lines, main results first:
"IC50 ([1]; NCI-H441 cells, 4 days)",Kd ([2]; 1:1 binding model),Kd ([2]; Single Cycle Kinetics),"IC50 [1, 6]","Kd [2, 7]",SMILES,HRAS /KRAS (HRAS wild-type protein; [4]),"NRAS /KRAS [3, 5]",HRAS /KRAS (HRAS wild-type protein; [8]),"NRAS /KRAS [3, 9]"
26 nM,1.4 nM,,,,CCOC[C@H]1C(=O)N[C@@H]([C@@H](C)CC)C(=O)N(C)CC(=O)N(C)[C@H]2C/C=C\CCN(C2=O)[C@@H](CC2CCCCC2)C(=O)N(C)CC(=O)N[C@@H](CCc2cc(F)c(C(F)(F)F)c(F)c2)C(=O)N2C[C@H](OCC)C[C@H]2C(=O)NC2(CC(C)(C)C2)C(=O)N(C)[C@@H](C(CC)CC)C(=O)N(C)[C@H](C(=O)N(C)C)CC(=O)N1C [PP2479],A (a compound having 10 or more and less than 20 is denoted as A),AA (a compound having 20 or more is denoted as AA),,
14.1 nM,,0.17 nM,,,CCCN(C)C(=O)[C@@H]1CC(=O)N(C)[C@@H](CC(C)C)C(=O)N[C@@H]([C@@H](C)CC)C(=O)N(C)CC(=O)N(C)[C@H]2C/C=C\CCN(C2=O)[C@@H](Cc2ccc(C(F)(F)F)cc2)C(=O)N(C)CC(=O)N[C@@H](CCc2cc(F)c(C(F)(F)F)c(F)c2)C(=O)N2C[C@H](OCC)C[C@H]2C(=O)N[C@]2(C[C@H](OC)C2)C(=O)N(C)[C@@H](C2CCCC2)C(=O)N1C [PP3353],A (a compound having 10 or more and less than 20 is denoted as A),A (a compound having 10 or more and less than 20 is denoted as A),,
31 nM,0.65 nM,,,,CCC[C@H]1C(=O)N[C@@H]([C@@H](C)CC)C(=O)N(C2CC2)CC(=O)N(C)[C@H]2C/C=C\CCN(C2=O)[C@@H](Cc2ccc(C(F)F)cc2)C(=O)N(C)CC(=O)N[C@@H](CCc2cc(F)c(C(F)(F)F)c(F)c2)C(=O)N2C[C@H](OCC)C[C@H]2C(=O)NC2(CC(C)(C)C2)C(=O)N(C)[C@@H](C(CC)CC)C(=O)N(C)[C@H](C(=O)N(C)C)CC(=O)N1C [PP2527],A (a compound having 10 or more and less than 20 is denoted as A),AA (a compound having 20 or more is denoted as AA),,
,,,26.8 nM,0.27 nM,CCO[C@@H]1C[C@H]2C(=O)NC3(CCC3)C(=O)N(C)[C@@H](C(CC)CC)C(=O)N(C)[C@H](C(=O)N(C)C)CC(=O)N(C)[C@@H](CC3CC3)C(=O)N[C@@H]([C@@H](C)CC)C(=O)N(C)CC(=O)N(C)[C@H]3C/C=C\CCN(C3=O)[C@@H](Cc3ccc(C(F)(F)F)cc3)C(=O)N(C)CC(=O)N[C@@H](CCc3ccc(C(F)(F)F)c(OC)c3)C(=O)N2C1 [PP1211],,,B (a compound having 3 or more and less than 10 is denoted as B),A (a compound having 10 or more and less than 20 is denoted as A)
12.9 nM,,1.4 nM,,,CCO[C@@H]1C[C@H]2C(=O)OC3(CCC3)C(=O)N(C)[C@@H](C3CCCC3)C(=O)N(C)[C@H](C(=O)N(C)C)CC(=O)N(C)[C@@H]([C@H](C)OC)C(=O)N[C@@H]([C@@H](C)CC)C(=O)N(C3CC3)CC(=O)N(C)[C@H]3C/C=C\CCN(C3=O)[C@@H](Cc3ccc(C)cc3)C(=O)N(C)CC(=O)N[C@@H](CCc3ccc(C(F)(F)F)c(OC)c3)C(=O)N2C1 [PP3396],B (a compound having 3 or more and less than 10 is denoted as B),A (a compound having 10 or more and less than 20 is denoted as A),,
480 nM,,1.9 nM,,,CCO[C@@H]1C[C@H]2C(=O)NC3(CC(C)(C)C3)C(=O)N(C)[C@@H](C3CCCC3)C(=O)N(C)[C@H](C(=O)N(C)CC)CC(=O)N(C)[C@@H]([C@H](C)OC)C(=O)N[C@@H]([C@@H](C)CC)C(=O)N3CCC[C@H]3C(=O)N(C)[C@H]3C/C=C\CCN(C3=O)[C@@H](Cc3ccc(C)cc3)C(=O)N(C)CC(=O)N[C@@H](CCc3ccc(C(F)(F)F)c(Cl)c3)C(=O)N2C1 [PP3165],A (a compound having 10 or more and less than 20 is denoted as A),A (a compound having 10 or more and less than 20 is denoted as A),,
,,,41.2 nM,0.57 nM,CCO[C@@H]1C[C@H]2C(=O)NC3(CCC3)C(=O)N(C)[C@@H](C(CC)CC)C(=O)N(C)[C@H](C(=O)N(C)C)CC(=O)N(C)[C@@H](CC3CCCC3)C(=O)N[C@@H]([C@@H](C)CC)C(=O)N(C)CC(=O)N(C)[C@H]3C/C=C\CCN(C3=O)[C@@H](CC3CCC(F)(F)CC3)C(=O)N(C)CC(=O)N[C@@H](CCc3cc(F)c(C(F)(F)F)c(F)c3)C(=O)N2C1 [PP1431],,,A (a compound having 10 or more and less than 20 is denoted as A),AA (a compound having 20 or more is denoted as AA)
9.3 nM,,0.25 nM,,,CCC[C@H]1C(=O)N[C@@H]([C@@H](C)CC)C(=O)N(C2CC2)CC(=O)N(C)[C@H]2C/C=C\CCN(C2=O)[C@@H](Cc2ccc(C)cc2)C(=O)N(C)CC(=O)N[C@@H](CCc2ccc(C(F)(F)F)c(Cl)c2)C(=O)N2CC[C@H](OC)[C@H]2C(=O)N(C)C2(CCC2)C(=O)N(C)[C@@H](C2CCCC2)C(=O)N(C)[C@H](C(=O)N(C)C)CC(=O)N1C [PP3233],A (a compound having 10 or more and less than 20 is denoted as A),A (a compound having 10 or more and less than 20 is denoted as A),,
